Reference: patent publication US20160361250A1, “ACTIVE INGREDIENTS STIMULATING TYPE 2 AND/OR TYPE 3 HUMAN BETA-DEFENSINS AND COSMETIC OR PHARMACEUTICAL COMPOSITIONS CONTAINING SUCH ACTIVE INGREDIENTS” (BASF Beauty Care Solutions France S.A.S., priority 2002, published 2016)

What was measured:
[1] = tested on: hBD2 and/or hBD3; experiment: 1st step of the screening method, overall outcome (defensin RT-PCR plus MIP3α/IL8 ELISA); assay type: cell-based, human
Experimental: (§1) A 1% concentration of the actives is tested on normal human keratinocytes, as a monolayer, on 96-well culture plates, in a specific medium enriched with calcium and free of serum (final concentration 1.7 mM).
(§2) At 80% confluence, cells are contacted with the actives (1 active per well) for 16 h. An untreated control and 2 positive controls (TNFα 100 ng/mL for hBD2 and IFNγ 100 ng/mL for hBD3) are set up in parallel on the same culture plate.
(§3) After 16 h, the supernatants are collected and cells are dry frozen at −80° C. after rinsing in PBS.
(§4) Total RNA are extracted using a 96-well extraction kit on silica columns and assayed using a 96-well spectrophotometer at 260 and 280 nm. RNA are diluted to 5 ng/mL.
Qualitative one-step RT-PCR is performed on 50 ng of initial RNA in 96 wells, on actin, hBD2 and hBD3. The primers are used at a concentration of 0.5 μM and arc taken from the literature:—hBD2: sense: 5′-[…]-3′; hBD2 antisense 5′-[…]-3′ (Harder J. et al., A peptide antibiotic from human skin. Nature 1997; 387 : 861); hBD3 sense: 5′-[…]-3′; hBD3 antisense: 5′-[…]-3′; actin sense: 5′-[…]-3′; actin antisense: 5′-[…]-3′ (Harder J. et al., Isolation and characterization of human β-defensin-3, a novel human inducible peptide antibiotic. J Biol Chem 2001, 276 : 5707-5713). […]
Photos of the gels are analysed by image processing software which quantifies the intensity of the bands. […]

[2] = tested on: IL1α; experiment: ELISA of IL1α in supernatants, 2nd step; assay type: cell-based, human; conditions: supernatant, 16 h
Experimental: (§5) The supernatants of the actives, whose capacity to induce defensins has been confirmed, are tested using an ELISA kit in order to assay MIP3α, IL8 and IL1α levels. These assays are performed on the same supernatant (200 μL) by carrying out a series dilution (by 1.5 to assay MIP3α and IL8, then by 2 to assay IL1). The levels are then referred to the RNA concentration assayed in each well in order to compare results with each other.
(§6) Quantitative RT-PCR makes it possible to obtain a basal value for the defensin expression for untreated controls. The results are therefore expressed as a percentage of the control. IL8, IL1 and MIP3 cytokine levels are given as pg/mL/RNA concentration (in ng/μL).

[3] = tested on: hBD3; experiment: Qualitative RT-PCR of hBD3 expression, 1st step of the screening method; assay type: cell-based; conditions: normal human keratinocytes, 16 h
Experimental: as §2, §3, §4
(§7) Qualitative one-step RT-PCR is performed on 50 ng of initial RNA in 96 wells, on actin, hBD2 and hBD3. The primers are used at a concentration of 0.5 μM and arc taken from the literature:—hBD2: sense: 5′-[…]-3′; hBD2 antisense 5′-[…]-3′ (Harder J. et al., A peptide antibiotic from human skin. Nature 1997; 387 : 861); hBD3 sense: 5′-[…]-3′; hBD3 antisense: 5′-[…]-3′; actin sense: 5′-[…]-3′; actin antisense: 5′-[…]-3′ (Harder J. et al., Isolation and characterization of human β-defensin-3, a novel human inducible peptide antibiotic. J Biol Chem 2001, 276 : 5707-5713).
(§8) Samples are placed in a thermocycler and follow a common amplification program: 50° C., 30 min; 94° C., 2 min, (94° C., 30 s; 60° C., 30 s; 68° C., 30 s), 32 cycles for the defensins and 30 cycles for actin; 72° C., 10 min; 14° C., infinite.
(§9) After amplification, the products are mixed at a rate of 3 μL of actin amplification products+6 μL of hBD2 amplification products+6 μL of hBD3 amplification products. 5 μL of a mixture of charge buffer and water (⅔) are added and the final 20 μL are deposited on 2% premoulded agarose gel. The samples migrate in 30 minutes and the bands are visualised under UV in a dark room then digitally photographed.
(§10) Photos of the gels are analysed by image processing software which quantifies the intensity of the bands. As the basal level of defensin expression (untreated control) is not detectable, the intensity ratios of the hBD2/actin and hBD3/actin bands can be compared, for example with those obtained for the positive control (treated with TNFα for hBD2 and IFNγ for hBD3) and indicate any stimulation of the expression of the β-defensin in question
(§11) Since the basal level of defensin expression is generally not detectable, stimulation of hBD2 and hBD3 is expressed as a percentage of the positive controls (TNFα for hBD2 and IFNγ for hBD3). IL8 and MIP3α levels are given as pg/mL/RNA concentration (in ng/μL).

[4] = tested on: hBD2 and/or hBD3; experiment: 2nd step of the screening method, overall outcome (quantitative RT-PCR plus MIP3α/IL8/IL1α ELISA); assay type: cell-based, human
Experimental: The actives which best satisfied the criteria for the first step undergo a dose-effect analysis.
(§12) The actives are then tested on 5 concentrations (from 0.001% to max viability) in quadruplicate on normal human keratinocytes as a monolayer on 96-well culture plates, in a specific medium enriched with calcium and free of serum (CaCl2 1.7 mM) (same conditions as in example 1).
as §3
(§13) Total RNA are extracted using a 96-well extraction kit on silica columns and assayed using a 96-well spectrophotometer at 260 and 280 nm. RNA are diluted to 5 ng/μL.
(§14) Quantitative RT-PCR in 96 wells on actin, hBD2 and hBD3 is initially carried out on 50 ng of RNA, using a one-step kit containing Sybrgreen, in a fluorescence thermocycler with the same primers as previously (0.5 μM). The amplification program is as follows: 50° C., 30 min; 94° C., 15 min; (94° C., 15 s; 60° C., 30 s; 72° C., 30 s)×50 cycles; 90° C., 1 min; 30° C., 1 min; 50° C. to 95° C. (10 s every ° C.); 14° C., infinite.
(§15) A study of the fusion graphs makes it possible to verify the specificity of amplified products. The fluorescence graph as a function of the number of cycles gives the C(T) value corresponding to the number of cycles needed to obtain initiation of the fluorescence signal. The more an mRNA is expressed, the lower the C(T) value. Calculation of Sgene=(½)^C(T) for each RNA takes into consideration the exponential increase in the number of copies during amplification. The Sgene hBD2/Sgene actin and Sgene hBD3/Sgene actin ratios can be compared with those of the untreated control to give the percentage stimulation produced.
as §5, with “The levels are then referred to the RNA concentration assayed in each well in order to compare results with each other.” left out

[5] = tested on: IL8; experiment: ELISA of IL8 in supernatants, 2nd step; assay type: cell-based, human; conditions: supernatant, 16 h
Experimental: as §5, §6

[6] = tested on: hBD3; experiment: Quantitative RT-PCR of hBD3 expression, 2nd step (dose-effect); assay type: cell-based, human; conditions: 16 h, untreated control = 100%
Experimental: as §12, §3, §13, §14, §15, §6
(§16) In the same way as in example 2, retinoic acid and retinol were tested for their capacity to stimulate hBD2 and/or hBD3.

[7] = tested on: hBD2; experiment: Quantitative RT-PCR of hBD2 expression, 2nd step (dose-effect); assay type: cell-based, human; conditions: 16 h, untreated control = 100%
Experimental: as §12, §3, §13, §14, §15, §6, §16

[8] = tested on: MIP3α; experiment: ELISA of MIP3α in supernatants, 2nd step; assay type: cell-based, human; conditions: supernatant, 16 h
Experimental: as §5, §6

[9] = tested on: hBD2; experiment: Qualitative RT-PCR of hBD2 expression, 1st step of the screening method; assay type: cell-based; conditions: normal human keratinocytes, 16 h
Experimental: as §1, §2, §3, §4, §7, §8, §9, §10, §11

[10] = tested on: MIP3α; experiment: ELISA of MIP3α secreted into the culture medium, 1st step; assay type: cell-based, human; conditions: 100 μg/mL; keratinocyte supernatant, 16 h
Experimental: (§17) At the end of this first step, the actives having exerted an effect on β-defensin expression are selected and the supernatants corresponding to these actives are then tested using an ELISA kit in order to determine the levels of MIP3α, IL1 and IL8 secreted into the culture medium under the effect of the actives. The levels are then referred to the RNA concentration assayed in each well in order to compare results with each other.
as §11

[11] = tested on: IL8; experiment: ELISA of IL8 secreted into the culture medium, 1st step; assay type: cell-based, human; conditions: 100 μg/mL; keratinocyte supernatant, 16 h
Experimental: as §17, §11

## CC[C@H](C)[C@H](N)C(=O)O [L-Isoleucine]
[1]; first step
  stimulation of human defensins 2 and 3 by qualitative RT-PCR (in words): no significant stimulation of human defensins 2 and 3
[2]; conc. 3.125 μg/mL
  IL1α level: 21 pg/mL/RNA concentration (in ng/μL)
[2]; conc. 6.25 μg/mL
  IL1α level: 22.3 pg/mL/RNA concentration (in ng/μL)
[2]; conc. 12.5 μg/mL
  IL1α level: 25.3 pg/mL/RNA concentration (in ng/μL)
[2]; conc. 25 μg/mL
  IL1α level: 22.8 pg/mL/RNA concentration (in ng/μL)
[3]; 10 μg/mL
  HBD3 expression, percentage of the positive control (IFNγ): 0%
[4]; 3.125, 6.25, 12.5 and 25 μg/mL
  induction of hBD2 and hBD3 expression in normal human keratinocytes (in words): has not been found capable of inducing hBD2 and hBD3 expression
[5]; conc. 3.125 μg/mL
  IL8 level: 36.9 pg/mL/RNA concentration (in ng/μL)
[5]; conc. 6.25 μg/mL
  IL8 level: 33.6 pg/mL/RNA concentration (in ng/μL)
[5]; conc. 12.5 μg/mL
  IL8 level: 42.2 pg/mL/RNA concentration (in ng/μL)
[5]; conc. 25 μg/mL
  IL8 level: 35.1 pg/mL/RNA concentration (in ng/μL)
[6]; conc. 3.125 μg/mL
  hBD3 expression, percentage of the control: 89%
[6]; conc. 6.25 μg/mL
  hBD3 expression, percentage of the control: 94%
[6]; conc. 12.5 μg/mL
  hBD3 expression, percentage of the control: 101%
[6]; conc. 25 μg/mL
  hBD3 expression, percentage of the control: 106%
[7]; conc. 3.125 μg/mL
  hBD2 expression, percentage of the control: 110%
[7]; conc. 6.25 μg/mL
  hBD2 expression, percentage of the control: 107%
[7]; conc. 12.5 μg/mL
  hBD2 expression, percentage of the control: 95%
[7]; conc. 25 μg/mL
  hBD2 expression, percentage of the control: 110%
[8]; conc. 3.125 μg/mL
  MIP3α level: 5.2 pg/mL/RNA concentration (in ng/μL)
[8]; conc. 6.25 μg/mL
  MIP3α level: 4.9 pg/mL/RNA concentration (in ng/μL)
[8]; conc. 12.5 μg/mL
  MIP3α level: 5.9 pg/mL/RNA concentration (in ng/μL)
[8]; conc. 25 μg/mL
  MIP3α level: 4.5 pg/mL/RNA concentration (in ng/μL)
[9]; 10 μg/mL
  HBD2 expression, percentage of the positive control (TNFα): 0%

## CC/C=C\C[C@H]1C(=O)CC[C@@H]1CC(=O)O [Jasmonic Acid]
[1]; concentrations of Tables I and II
  satisfying the criteria for the first step (in words): stimulate hBD2 and/or hBD3 without triggering the expression of MIP3 and IL8 cytokines
[2]; conc. 100 μg/mL
  IL1α level: 31.2 pg/mL/RNA concentration (in ng/μL)
[2]; conc. 500 μg/mL
  IL1α level: 97.1 pg/mL/RNA concentration (in ng/μL)
[3]; 100 μg/mL
  HBD3 expression, percentage of the positive control (IFNγ): 0%
[4]; jasmonic acid 100 μg/mL, α-MSH as in Table III
  induction of defensins 2 and/or 3 (in words): capable of inducing defensins 2 and/or 3
[4]; second step
  satisfying the criteria of the invention (in words): stimulate hBD2 and/or hBD3 without triggering the expression of MIP3, IL8 or IL1 cytokines
[5]; conc. 100 μg/mL
  IL8 level: 37.9 pg/mL/RNA concentration (in ng/μL)
[5]; conc. 500 μg/mL
  IL8 level: 103.3 pg/mL/RNA concentration (in ng/μL)
[6]; conc. 100 μg/mL
  hBD3 expression, percentage of the control: 477%
[6]; conc. 500 μg/mL
  hBD3 expression, percentage of the control: 26919%
[10]
  MIP3α level: 6 pg/mL/RNA concentration (in ng/μL)
[11]
  IL8 level: 25.3 pg/mL/RNA concentration (in ng/μL)
[7]; conc. 100 μg/mL
  hBD2 expression, percentage of the control: 86%
[7]; conc. 500 μg/mL
  hBD2 expression, percentage of the control: 134%
[8]; conc. 100 μg/mL
  MIP3α level: 4.6 pg/mL/RNA concentration (in ng/μL)
[8]; conc. 500 μg/mL
  MIP3α level: 13.6 pg/mL/RNA concentration (in ng/μL)
[9]; 100 μg/mL
  HBD2 expression, percentage of the positive control (TNFα): 7%

## CC[C@H](C)[C@H](N)C(=O)OC [Isoleucine Methyl ester]
[3]; 100 μg/mL
  HBD3 expression, percentage of the positive control (IFNγ): 6%
[10]
  MIP3α level: 3.8 pg/mL/RNA concentration (in ng/μL)
[11]
  IL8 level: 7.7 pg/mL/RNA concentration (in ng/μL)
[9]; 100 μg/mL
  HBD2 expression, percentage of the positive control (TNFα): 16%
